Results taken from patent publication US8741905B2, “Compounds and methods for treating autoimmune diseases” (The Broad Institute, Inc., priority 2010, dated 2014).

What was measured:
[1] = test system: INS-1E cells; assay: Caspase-3 activity assay (Caspase-Glo 3/7) in cytokine-treated INS-1E cells; format: cell-based, rat; conditions: cytokines, 48 h, Caspase-Glo 3/7
Protocol: INS-1E cells were seeded at 5,000 cells per well in white optical 384-well plates and treated as described for highthroughput screening. After treatment with cytokines and compounds for 48 h, medium was removed and 20 μL Caspase-Glo 3/7 reagent was added. Luminescence was measured after 2 h of incubation using an EnVision plate reader.

[2] = test system: INS-1E cells; assay: Cellular ATP levels (CellTiter-Glo) in cytokine-treated INS-1E cells; suppression of cytokine-induced beta-cell apoptosis; format: cell-based, rat
Protocol: The compounds were analyzed for activity utilizing methods described in Chou et al. (ACS Chem. Biol. 2010 Aug. 20; 5(8):729-34).
INS-1E cells were seeded at 10,000 cells per well using a Multidrop Combi (Thermo Labsystems) in white optical 384-well plates (Corning Life Sciences). After overnight incubation, medium was removed and 50 μL of RPMI containing 1% FBS and a combination of cytokines (10 ng mL-^1 IL-1β, 50 ng mL^−1 IFN-γ, 25 ngmL^−1 TNF-α) was added to every well. Using libraries of compounds dissolved in DMSO and a CyBi-Well pin-transfer robot (CyBio Corp.), 0.1 μL of each compound was added. After 48 h, medium was removed and 20 μL of CellTiter-Glo reagent was added. Luminescence was measured after 10 min of incubation using an EnVision plate reader (PerkinElmer).
Instrument output files were processed using Pipeline Pilot (Accelrys) and input to MATLAB (The MathWorks) for data normalization. Compound performance scores relative to a distribution of mock-treated (DMSO) wells were calculated using a revised version of the scoring system underlying ChemBank. (Seiler et al., Nucleic Acids Res. 36, D351-359, 2008). The role of replicate treatments was further developed as follows: first, mock-treatment distributions were modeled using all mock-treated wells measured on a single day, regardless of their nominal replicate; second, per-compound scores weighted each in-plate background-subtracted measurement by the uncertainty in that measurement, using the method of maximum likelihood. The uncertainty in a single background-subtracted measurement was estimated using the number of mock-treated wells on the plate and, as a measure of the assay noise, the standard deviation of the per-day mock-treatment distribution. The signal, a weighted average of differences, was scaled by the noise, the standard deviation of the mock treatment distribution.
INS-1E cells were seeded at 10,000 cells/well using a Multidrop Combi (Thermo Labsystems) in white optical 384-well plates (Corning Life Sciences). After overnight incubation, medium was removed and 50 μL RPMI containing the treated compound, 1% FBS and a combination of cytokines (10 ng/mL IL-1β, 50 ng/mL IFN-γ, 25 ng/mL TNF-α) was added to every well. After incubation for 48 hr, medium was removed and 20 μL CellTiter-Glo reagent was added. Luminescence was measured after 10-min incubation using an EnVision plate reader (PerkinElmer).

[3] = Rattus norvegicus, INS-1E, assay not named, read-out: EC50
[4] = Rattus norvegicus, INS-1E cells, cytokines IL-1β, IFN-γ, TNF-α, 48 h, CellTiter-Glo, read-out: CTG EC50 in HTS
[5] = INS-1E cells, cytokines IL-1β, IFN-γ, TNF-α, 48 h, CellTiter-Glo, read-out: CTG EC50 in HTS

| Compound | EC50 ([1]; Rattus norvegicus) [µM] | EC50 [2, 3] [µM] | IC50 ([2]; Rattus norvegicus, INS-1E, read-out: IC50, inhibition of cytokine-induced beta cell apoptosis) [µM] | EC50 [2, 4] [µM] | EC50 [1] [µM] | EC50 [2, 5] [µM] |
| --- | --- | --- | --- | --- | --- | --- |
| COc1ccc(S(=O)(=O)N(C)C[C@@H]2Oc3c(NC(=O)Nc4cccc5ccccc45)cccc3C(=O)N([C@@H](C)CO)C[C@H]2C)cc1 [Compound 1A, N-(((2R,3R)-5-((S)-1-hydroxypropan-2-yl)-3-methyl-10-(3-(naphthalen-1-yl)ureido)-6-oxo-3,4,5,6-tetrahydro-2H-benzo[b][1,5]oxazocin-2-yl)methyl)-4-methoxy-N-methylbenzenesulfonamide] | > 0.1 | 0.423 | 4.9 | > 0.1 | – | – |
| Cc1ccc(S(=O)(=O)N(C)C[C@@H]2Oc3c(NC(=O)Nc4cccc5ccccc45)cccc3C(=O)N([C@@H](C)CO)C[C@H]2C)cc1 [Compound 2A, N-(((2R,3R)-5-((S)-1-hydroxypropan-2-yl)-3-methyl-10-(3-(naphthalen-1-yl)ureido)-6-oxo-3,4,5,6-tetrahydro-2H-benzo[b][1,5]oxazocin-2-yl)methyl)-N,4-dimethylbenzenesulfonamide] | > 25 | 5.5 | – | > 10 | – | – |
| Cc1ccc(S(=O)(=O)N(C)C[C@@H]2Oc3c(NC(=O)Nc4cccc5c4ccn5C)cccc3C(=O)N([C@@H](C)CO)C[C@H]2C)cc1 [Compound 3A, N-(((2R,3R)-5-((S)-1-hydroxypropan-2-yl)-3-methyl-10-(3-(1-methyl-1H-indol-4-yl)ureido)-6-oxo-3,4,5,6-tetrahydro-2H-benzo[b][1,5]oxazocin-2-yl)methyl)-N,4-dimethylbenzenesulfonamide] | > 10 | – | – | > 25 | – | – |
| C[C@@H]1CN([C@@H](C)CO)C(=O)c2cccc(NC(=O)Nc3cccc4ccccc34)c2O[C@H]1CN(C)S(=O)(=O)c1ccccc1 [Compound 4A] | – | – | – | – | > 25 | > 25 |
| C[C@@H]1CN([C@@H](C)CO)C(=O)c2cccc(NC(=O)Nc3cccc4ccccc34)c2O[C@H]1CN(C)S(=O)(=O)c1ccc(Cl)cc1 [Compound 5A] | – | – | – | – | > 25 | > 0.1 |
| C[C@@H]1CN([C@@H](C)CO)C(=O)c2cccc(NC(=O)Nc3cccc4ccccc34)c2O[C@H]1CN(C)S(=O)(=O)c1ccc(F)cc1 [Compound 6A] | – | – | – | – | > 25 | > 25 |
| C[C@@H]1CN([C@@H](C)CO)C(=O)c2cccc(NC(=O)Nc3cccc4ccccc34)c2O[C@H]1CN(C)S(=O)(=O)c1cccc(F)c1 [Compound 7A] | – | – | – | – | > 25 | > 25 |
| C[C@@H]1CN([C@@H](C)CO)C(=O)c2cccc(NC(=O)Nc3cccc4ccccc34)c2O[C@H]1CN(C)S(=O)(=O)c1ccccc1F [Compound 8A] | – | – | – | – | > 25 | > 25 |
| C[C@@H]1CN([C@@H](C)CO)C(=O)c2cccc(NC(=O)Nc3cccc4ccccc34)c2O[C@H]1CN(C)CS(=O)(=O)c1ccc(F)cc1 [Compound 9A] | – | – | – | – | > 25 | > 25 |
| COc1ccc(S(=O)(=O)N(C)C[C@@H]2Oc3c(NC(=O)Nc4cccc5ccccc45)cccc3C(=O)N([C@@H](C)CO)C[C@H]2C)cc1F [Compound 10A] | – | – | – | – | > 25 | > 20 |
| COc1ccc(S(=O)(=O)N(C)C[C@@H]2Oc3c(NC(=O)Nc4cccc5ccccc45)cccc3C(=O)N([C@@H](C)CO)C[C@H]2C)cc1Cl [Compound 11A] | – | – | – | – | > 25 | > 10 |
| C[C@@H]1CN([C@@H](C)CO)C(=O)c2cccc(NC(=O)Nc3cccc4ccccc34)c2O[C@H]1CN(C)S(=O)(=O)c1ccc(Oc2ccccc2)cc1 [Compound 12A] | – | – | – | – | > 25 | > 25 |
| C[C@@H]1CN([C@@H](C)CO)C(=O)c2cccc(NC(=O)Nc3cccc4ccccc34)c2O[C@H]1CN(C)S(=O)(=O)c1ccc(-c2ccccc2)cc1 [Compound 13A] | – | – | – | – | > 25 | > 25 |
| C[C@@H]1CN([C@@H](C)CO)C(=O)c2cccc(NC(=O)Nc3cccc4ccccc34)c2O[C@H]1CN(C)S(=O)(=O)c1ccc2c(c1)CCC(=O)N2 [Compound 14A] | – | – | – | – | > 25 | > 25 |
| C[C@@H]1CN([C@@H](C)CO)C(=O)c2cccc(NC(=O)Nc3cccc4ccccc34)c2O[C@H]1CN(C)S(=O)(=O)c1ccc2c(c1)oc(=O)n2C [Compound 15A] | – | – | – | – | > 25 | > 25 |
| C[C@@H]1CN([C@@H](C)CO)C(=O)c2cccc(NC(=O)Nc3cccc4ccccc34)c2O[C@H]1CN(C)S(=O)(=O)c1ccc(OC(F)(F)F)cc1 [Compound 16A] | – | – | – | – | > 25 | > 10 |
| COc1ccccc1S(=O)(=O)N(C)C[C@@H]1Oc2c(NC(=O)Nc3cccc4ccccc34)cccc2C(=O)N([C@@H](C)CO)C[C@H]1C [Compound 17A] | – | – | – | – | > 25 | > 25 |
| COc1cccc(S(=O)(=O)N(C)C[C@@H]2Oc3c(NC(=O)Nc4cccc5ccccc45)cccc3C(=O)N([C@@H](C)CO)C[C@H]2C)c1 [Compound 18A] | – | – | – | – | > 25 | > 25 |
| COc1ccc(S(=O)(=O)N(C)C[C@@H]2Oc3c(NC(=O)Nc4cccc5ccccc45)cccc3C(=O)N([C@@H](C)CO)C[C@H]2C)c(OC)c1 [Compound 19A] | – | – | – | – | > 25 | > 25 |
| COc1ccc(S(=O)(=O)N(C)C[C@@H]2Oc3c(NC(=O)Nc4cccc5ccccc45)cccc3C(=O)N([C@@H](C)CO)C[C@H]2C)cc1C [Compound 20A, N-(((2R,3R)-5-((S)-1-hydroxypropan-2-yl)-3-methyl-10-(3-(naphthalen-1-yl)ureido)-6-oxo-3,4,5,6-tetrahydro-2H-benzo[b][1,5]oxazocin-2-yl)methyl)-4-methoxy-N,3-dimethylbenzenesulfonamide] | > 0.1 | 0.314 | – | > 0.1 | – | – |
| C[C@@H]1CN([C@@H](C)CO)C(=O)c2cccc(NC(=O)Nc3cccc4ccccc34)c2O[C@H]1CN(C)S(=O)(=O)c1ccc2c(c1)OCO2 [Compound 23A] | – | – | – | – | > 25 | > 25 |
| C[C@@H]1CN([C@@H](C)CO)C(=O)c2cccc(NC(=O)Nc3cccc4ccccc34)c2O[C@H]1CN(C)S(=O)(=O)c1ccc2c(c1)OCC2 [Compound 24A] | – | – | – | – | > 25 | > 25 |
| C[C@@H]1CN([C@@H](C)CO)C(=O)c2cccc(NC(=O)Nc3cccc4ccccc34)c2O[C@H]1CN(C)S(=O)(=O)c1ccc2c(c1)OCCCO2 [Compound 25A] | – | – | – | – | > 25 | > 25 |
| C[C@@H]1CN([C@@H](C)CO)C(=O)c2cccc(NC(=O)Nc3cccc4ccccc34)c2O[C@H]1CN(C)S(=O)(=O)c1ccc2c(n1)N(C)CCO2 [Compound 26A] | – | – | – | – | > 25 | > 25 |
| C[C@@H]1CN([C@@H](C)CO)C(=O)c2cccc(NC(=O)Nc3ccc(F)cc3)c2O[C@H]1CN(C)S(=O)(=O)c1ccc(Cl)cc1 [Compound 30A, 4-Chloro-N-(((2R,3R)-10-(3-(4-fluorophenyl)ureido)-5-((S)-1-hydroxypropan-2-yl)-3-methyl-6-oxo-3,4,5,6-tetrahydro-2H-benzo[b][1,5]oxazocin-2-yl)methyl)-N-methylbenzenesulfonamide] | > 25 | – | – | > 25 | – | – |
| C[C@@H]1CN([C@@H](C)CO)C(=O)c2cccc(NC(=O)Nc3ccccc3)c2O[C@H]1CN(C)S(=O)(=O)c1ccc(Cl)cc1 [Compound 31A] | – | – | – | – | > 20 | > 20 |
| COc1ccc(S(=O)(=O)N(C)C[C@@H]2Oc3c(NC(=O)Nc4cccc(Cl)c4Cl)cccc3C(=O)N([C@@H](C)CO)C[C@H]2C)cc1 [Compound 32A, N-(((2R,3R)-10-(3-(2,3-Dichlorophenyl)ureido)-5-((S)-1-hydroxypropan-2-yl)-3-methyl-6-oxo-3,4,5,6-tetrahydro-2H-benzo[b][1,5]oxazocin-2-yl)methyl)-4-methoxy-N-methylbenzenesulfonamide] | > 25 | – | – | > 20 | – | – |
| COc1ccc(S(=O)(=O)N(C)C[C@@H]2Oc3c(NC(=O)Nc4ccccc4)cccc3C(=O)N([C@@H](C)CO)C[C@H]2C)cc1 [Compound 33A] | – | – | – | – | > 25 | > 25 |
| COc1ccc(S(=O)(=O)N(C)C[C@@H]2Oc3c(NC(=O)c4cc(C)nn4C)cccc3C(=O)N([C@@H](C)CO)C[C@H]2C)cc1 [Compound 34A] | – | – | – | – | > 25 | > 25 |
| Cc1ccc(S(=O)(=O)N(C)C[C@@H]2Oc3c(NC(=O)Nc4ccc(F)cc4)cccc3C(=O)N([C@H](C)CO)C[C@H]2C)cc1 [Compound 37B] | – | – | – | – | – | > 25 |
